Source: patent US11802111B2, “Cyclobutyl amide monoacylglycerol lipase modulators” (Janssen Pharmaceutica NV, priority 2020, dated 2023)

target: human MGL from HeLa cells (Homo sapiens (Human), UniProt Q99685); experiment: MGL in vitro activity assay ([glycerol-1,3-3H]-oleoyl glycerol hydrolysis, activated carbon filtration); format: biochemical; details: 300 nM [Glycerol-1,3-3H]-oleoyl glycerol, one hour
Outline: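 Endogenous human MGL in HeLa cells/homogenates incubated 1 h with test compounds and 300 nM [glycerol-1,3-3H]-oleoyl glycerol. Released 3H-glycerol passing an activated carbon filter counted as activity; screening at 10 μM compound, top IC50 concentration set empirically.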

human MGL from HeLa cells, sequence (Q99685 whole entry): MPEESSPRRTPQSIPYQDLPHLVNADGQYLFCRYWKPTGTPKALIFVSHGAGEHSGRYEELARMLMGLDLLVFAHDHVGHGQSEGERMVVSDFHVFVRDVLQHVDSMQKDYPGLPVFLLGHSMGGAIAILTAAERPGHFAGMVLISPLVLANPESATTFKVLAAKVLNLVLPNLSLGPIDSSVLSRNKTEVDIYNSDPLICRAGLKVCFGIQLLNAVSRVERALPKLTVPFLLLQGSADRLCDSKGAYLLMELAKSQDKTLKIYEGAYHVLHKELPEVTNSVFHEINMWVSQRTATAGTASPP

Row | IC50 [nM] | Structure (SMILES)
1 | 2 | Cc1cn(C)c2nc(OC3CCC4(CC3)CN(C(=O)[C@H]3C[C@@](C)(O)C3)C4)ccc12 [Example 471, (7-((1,3-Dimethyl-1H-pyrrolo[2,3-b]pyridin-6-yl)oxy)-2-azaspiro[3.5]nonan-2-yl)((1s,3s)-3-hydroxy-3-methylcyclobutyl)methanone]
2 | 26 | Cc1cc2ccc(OC3CCC4(CC3)CN(C(=O)[C@H]3C[C@@](C)(O)C3)C4)nc2n1C [Example 472, (7-((1,2-Dimethyl-1H-pyrrolo[2,3-b]pyridin-6-yl)oxy)-2-azaspiro[3.5]nonan-2-yl)((1s,3s)-3-hydroxy-3-methylcyclobutyl)methanone]
3 | 1.2 | Cc1cc2ccn(C)c2nc1OC1CCC2(CC1)CN(C(=O)[C@H]1C[C@@](C)(O)C1)C2 [Example 473, (7-((1,5-Dimethyl-1H-pyrrolo[2,3-b]pyridin-6-yl)oxy)-2-azaspiro[3.5]nonan-2-yl)((1s,3s)-3-hydroxy-3-methylcyclobutyl)methanone]
4 | 5.5 | Cn1cc(F)c2ccc(OC3CCC4(CC3)CN(C(=O)[C@H]3C[C@@](C)(O)C3)C4)nc21 [Example 474, (7-((3-Fluoro-1-methyl-1H-pyrrolo[2,3-b]pyridin-6-yl)oxy)-2-azaspiro[3.5]nonan-2-yl)((1s,3s)-3-hydroxy-3-methylcyclobutyl)methanone]
5 | 4.6 | CCn1cc(F)c2ccc(OC3CCC4(CC3)CN(C(=O)[C@H]3C[C@@](C)(O)C3)C4)nc21 [Example 475, (7-((1-Ethyl-3-fluoro-1H-pyrrolo[2,3-b]pyridin-6-yl)oxy)-2-azaspiro[3.5]nonan-2-yl)((1s,3s)-3-hydroxy-3-methylcyclobutyl)methanone]
6 | 1.4 | Cn1cc(C(F)(F)F)c2ccc(OC3CCC4(CC3)CN(C(=O)[C@H]3C[C@@](C)(O)C3)C4)nc21 [Example 476, ((1s,3s)-3-Hydroxy-3-methylcyclobutyl)(7-((1-methyl-3-(trifluoromethyl)-1H-pyrrolo[2,3-b]pyridin-6-yl)oxy)-2-azaspiro[3.5]nonan-2-yl)methanone]
7 | 146 | Cn1ncc2ccc(OC3CCC4(CC3)CN(C(=O)[C@H]3C[C@@](C)(O)C3)C4)nc21 [Example 477, ((1s,3s)-3-Hydroxy-3-methylcyclobutyl)(7-((1-methyl-1H-pyrazolo[3,4-b]pyridin-6-yl)oxy)-2-azaspiro[3.5]nonan-2-yl)methanone]
8 | 203 | COc1cc(C)cc(C2CC3(CCN(C(=O)[C@H]4C[C@@](C)(O)C4)CC3)C2)c1 [Example 478, ((1s,3s)-3-Hydroxy-3-methylcyclobutyl)(2-(3-methoxy-5-methylphenyl)-7-azaspiro[3.5]nonan-7-yl)methanone]
9 | 3.1 | Cc1cc(C(F)(F)F)ccc1OC1CC2(CCN(C(=O)[C@H]3C[C@@](C)(O)C3)CC2)C1 [Example 479, ((1s,3s)-3-Hydroxy-3-methylcyclobutyl)(2-(2-methyl-4-(trifluoromethyl)phenoxy)-7-azaspiro[3.5]nonan-7-yl)methanone]
10 | 5.8 | Cc1cc(OC2CC3(CCN(C(=O)[C@H]4C[C@@](C)(O)C4)CC3)C2)ccc1C(F)(F)F [Example 480, ((1s,3s)-3-Hydroxy-3-methylcyclobutyl)(2-(3-methyl-4-(trifluoromethyl)phenoxy)-7-azaspiro[3.5]nonan-7-yl)methanone]
11 | 15 | Cc1cc(C(F)(F)F)cnc1OC1CC2(CCN(C(=O)[C@H]3C[C@@](C)(O)C3)CC2)C1 [Example 481, ((1s,3s)-3-Hydroxy-3-methylcyclobutyl)(2-((3-methyl-5-(trifluoromethyl)pyridin-2-yl)oxy)-7-azaspiro[3.5]nonan-7-yl)methanone]
12 | 61 | Cc1nc(OC2CC3(CCN(C(=O)[C@H]4C[C@@](C)(O)C4)CC3)C2)ccc1C(F)(F)F [Example 482, ((1s,3s)-3-Hydroxy-3-methylcyclobutyl)(2-((6-methyl-5-(trifluoromethyl)pyridin-2-yl)oxy)-7-azaspiro[3.5]nonan-7-yl)methanone]
